Laboratory results as given in patent publication US11001745B2, “Hydrocarbon recovery composition, method, and system” (THE SASKATCHEWAN RESEARCH COUNCIL, priority 2016, dated 2021).

Legend:
[1] = Dissolution of asphaltenes; assay type: physicochemical
[2] = Thermal stability; assay type: physicochemical; settings: 200° C.
[3] = room temperature; cited from earlier work

Asphaltenes dissolve in the compound [1]	Thermal stability [2]	SMILES	Solubility in water [3]
dissolve	–	O=C1CCCN1C1CCCCC1 [NCHP, N-cyclohexyl-2-pyrrolidone]	–
dissolve	–	CCCCCCCCCCCCN1CCCC1=O [NDDP, N-dodecyl-2-pyrrolidone]	–
dissolve	stable for at least one week	CCCCCCCCN1CCCC1=O [NOP, N-octyl-2-pyrrolidone]	about 1 g/L
